# Tested on: Mouse bone marrow derived macrophages
# Assay: Superoxide anion generation in macrophages (lucigenin chemoluminescent assay)
# Assay type: cell-based
# Details: 1 or 3 μg/ml, 24 h; Zymosan-initiated; versus untreated controls (FIG. 2)
# Protocol: Mouse bone marrow derived macrophages were incubated for 24 h at 37° C. in MEM+10% FCS to a concentration of 10^6 cells/ml in the absence or presence of ELPs IES01 and IEC01 at the concentration of 1 or 3 μg/ml. The O2^− free radicals were measured in a chemoluminescent assay that detects the photons generated by the reaction of superoxid anions with lucigenin. The liberated photons are counted with a luminometer Microlumat LB96P, Berthold, Wildbad, Germany. Collected macrophages are resuspended in 0.2 ml at a concentration of 10^6/ml in HEPES buffered medium containing 540 μg/ml lucigenin. Superoxid production is initiated by adding 50 mg of Zymosan and the emission of photons is measured with a luminometer for 2 h.
smiles,measurement,value
"CCCCCCCCCCCCCCCCCCOCC(COP(=O)([O-])OCC[N+](C)(C)C)OC (stereo not shown) [IEC01, Edelfosine]","amount of O2− free radicals produced by macrophages (inhibition, in words)",higher

# — patent publication US6583127B1, “Use of etherlysophospholipids as antiinflammatory agents” (Inkeysa. SA, priority 1998, dated 2003)
